Laboratory results as given in publication PMC7501296, “Rapid and direct control of target protein levels with VHL-recruiting dTAG molecules” (Nature Communications, 2020).
Where “and” joins values, the source holds several entries; their conditions need not be identical. Equal entries are not always repeated.

Experiments:
[1] = molecular target: T1, luciferase-FKBP12^F36V (Homo sapiens, UniProt P62942, F37V); test: Pharmacodynamic evaluation: bioluminescence of MV4;11 luc-FKBP12F36V cells in mice; format: in vivo, mice (NSG); set-up: Total flux for each mouse: unit not given here; conditions: for Total flux for each mouse: single mice
T1 construct: luciferase (fusion partner); expressed in transfected cells; host or cells: MV4;11 cells transplanted into NSG mice
T1 sequence (P62942 2-108 F37V limits assumed): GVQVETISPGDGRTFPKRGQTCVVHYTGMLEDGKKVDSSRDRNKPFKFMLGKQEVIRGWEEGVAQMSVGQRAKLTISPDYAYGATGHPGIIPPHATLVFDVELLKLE
From the text: For IP injections, dTAG-13 and dTAG^V-1 were formulated by dissolving into DMSO and then diluting with 20% solutol (Sigma): 0.9% sterile saline (Moltox) (w:v) with the final formulation containing 5% DMSO. […] Formulations were stable at room temperature for 7 days. For IV injections, dTAG-13 and dTAG^V-1 were formulated by dissolving into DMSO and then diluting with 5% solutol (Sigma): 0.9% sterile saline (Moltox) (w:v) with the final formulation containing 5% DMSO.
All procedures for PD studies were compliant with ethical regulations for animal testing and research, and were approved by and performed in accordance with standards of the IACUC at Dana–Farber Cancer Institute. Housing conditions for mice at Dana–Farber Cancer Institute were as follows: lights on = 6 AM, lights off = 6 PM, average ambient temperature = 72 °F, and average humidity = 35–55%. Evaluation of degradation of luciferase in vivo was performed using MV4;11 luc-FKBP12^F36V cells and bioluminescent measurements[6],[48]. In brief, 250,000 viable MV4;11 luc-FKBP12^F36V cells were transplanted by tail-vein injection in 8-week-old immunocompromised female mice (NOD.Cg-Prkdc^scidIl2rg^tm1Wjl/SzJ, NSG; Jackson Laboratory, #005557). Bioluminescent measurements were performed following IP injection of 75 mg kg^−1 D-Luciferin (Promega). Mice were then anesthetized with 2−3% isoflurane, imaged on an IVIS Spectrum (Caliper Life Sciences), and total body bioluminescence was determined using a standardized region of interest. Two and seven days after tail-vein injection, bioluminescent measurements were performed to confirm engraftment. […] For treatments, compounds were formulated as described above, administered via IP injection and bioluminescent measurements were performed daily as described in Fig. 2d, beginning 8 days after tail-vein injection.

[2] = test system: EWS502 FKBP12^F36V-EWS/FLI; EWS/FLI^−/− cells; test: Synergy assessment: antiproliferation of EWS502 FKBP12F36V-EWS/FLI; EWS/FLI-/- cells co-treated with dTAGV-1 and dBET6, 72 h; format: cell-based
Procedure: Cell viability was assayed in 2D-adherent or ultra-low adherent 3D-spheroids using CellTiter-Glo (Promega)[6],[15]. Luminescence was measured on an Envision 2104 plate reader (PerkinElmer) and Fluostar Omega Reader (BMG Labtech) and data was analyzed using GraphPad PRISM v8. Synergy assessments were performed using CellTiter-Glo (Promega) with the following modifications to the protocol described in the ref. [34]. In brief, EWS502 cells were plated at 1000 cells per well in 50 µL of appropriate media in 384-well white culture plates (Corning) allowed to adhere overnight, and 100 nL of compounds were added using a Janus Workstation pin tool (PerkinElmer) for 72 h. Cell viability was measured by addition of 10 µL of CellTiter-glo (Promega), followed by incubation for 15 minutes at room temperature. Luminescence was measured on an Envision 2104 plate reader (PerkinElmer) and data was analyzed using GraphPad PRISM v8.

CC[C@H](C(=O)N1CCCC[C@H]1C(=O)O[C@H](CCc1ccc(OC)c(OC)c1)c1ccccc1OCC(=O)NCCCCCCC(=O)N[C@H](C(=O)N1C[C@H](O)C[C@H]1C(=O)N[C@@H](C)c1ccc(-c2scnc2C)cc1)C(C)(C)C)c1cc(OC)c(OC)c(OC)c1 [dTAG^V-1]
Bioluminescent signal 4 h after each of the three administrations ([1]; 35 mg kg^−1 IP): Consistent loss of bioluminescent signal
Bioluminescent signal 4 h after the first administration ([1]; 35 mg kg^−1 IP): Striking loss of bioluminescent signal
Duration of degradation ([1]; 35 mg kg^−1 IP, after the final administration): degradation evident 28 h after the final administration
Total flux for each mouse ([1]; Baseline (day 0, before treatment), MV4;11 luc-FKBP12F36V): 1893000 and 1330000 and 3116000 and 1809000 and 3338000
Total flux for each mouse ([1]; No treatment (day 4), 28 h after third and final treatment): 601200 and 13590000 and 24710000 and 1755000 and 24650000
Total flux for each mouse ([1]; Treatment #1 (day 1), 4 h after 35 mg kg^−1 IP): 4041000 and 2159000 and 3736000 and 2539000 and 5912000
Total flux for each mouse ([1]; Treatment #2 (day 2), 4 h after 35 mg kg^−1 IP): 3135000 and 1001000 and 2876000 and 2693000 and 9211000
Total flux for each mouse ([1]; Treatment #3 (day 3), 4 h after 35 mg kg^−1 IP): 4741000 and 1924000 and 4372000 and 3069000 and 6943000
Average DMSO-normalized ratio used for CI calculation ([2]; 19.5 nM dTAGV-1 alone): 0.9622
Average DMSO-normalized ratio used for CI calculation ([2]; 78 nM dTAGV-1 alone): 1.188
Average DMSO-normalized ratio used for CI calculation ([2]; 312.5 nM dTAGV-1 alone): 1.089
Average DMSO-normalized ratio used for CI calculation ([2]; 1250 nM dTAGV-1 alone): 1.112
Average DMSO-normalized ratio used for CI calculation ([2]; 5000 nM dTAGV-1 alone): 1.06
DMSO-normalized antiproliferation, Mean ([2]; co-treatment 19.5 nM dTAGV-1 (log10[M] -7.70927) + 1 nM dBET6 (log10[M] -9.0103)): 98.11
DMSO-normalized antiproliferation, Mean ([2]; co-treatment 19.5 nM dTAGV-1 (log10[M] -7.70927) + 4 nM dBET6 (log10[M] -8.40824)): 98.09
DMSO-normalized antiproliferation, Mean ([2]; co-treatment 19.5 nM dTAGV-1 (log10[M] -7.70927) + 15.6 nM dBET6 (log10[M] -7.80618)): 79.8
DMSO-normalized antiproliferation, Mean ([2]; co-treatment 19.5 nM dTAGV-1 (log10[M] -7.70927) + 62.5 nM dBET6 (log10[M] -7.20412)): 50.57
DMSO-normalized antiproliferation, Mean ([2]; co-treatment 19.5 nM dTAGV-1 (log10[M] -7.70927) + 250 nM dBET6 (log10[M] -6.60206)): 35.76
DMSO-normalized antiproliferation, Mean ([2]; co-treatment 78 nM dTAGV-1 (log10[M] -7.10721) + 1 nM dBET6 (log10[M] -9.0103)): 113.36
DMSO-normalized antiproliferation, Mean ([2]; co-treatment 78 nM dTAGV-1 (log10[M] -7.10721) + 4 nM dBET6 (log10[M] -8.40824)): 105.67
DMSO-normalized antiproliferation, Mean ([2]; co-treatment 78 nM dTAGV-1 (log10[M] -7.10721) + 15.6 nM dBET6 (log10[M] -7.80618)): 83.17
DMSO-normalized antiproliferation, Mean ([2]; co-treatment 78 nM dTAGV-1 (log10[M] -7.10721) + 62.5 nM dBET6 (log10[M] -7.20412)): 54.14
DMSO-normalized antiproliferation, Mean ([2]; co-treatment 78 nM dTAGV-1 (log10[M] -7.10721) + 250 nM dBET6 (log10[M] -6.60206)): 36.78
DMSO-normalized antiproliferation, Mean ([2]; co-treatment 312.5 nM dTAGV-1 (log10[M] -6.50515) + 1 nM dBET6 (log10[M] -9.0103)): 111.14
DMSO-normalized antiproliferation, Mean ([2]; co-treatment 312.5 nM dTAGV-1 (log10[M] -6.50515) + 4 nM dBET6 (log10[M] -8.40824)): 105.95
DMSO-normalized antiproliferation, Mean ([2]; co-treatment 312.5 nM dTAGV-1 (log10[M] -6.50515) + 15.6 nM dBET6 (log10[M] -7.80618)): 72.28
DMSO-normalized antiproliferation, Mean ([2]; co-treatment 312.5 nM dTAGV-1 (log10[M] -6.50515) + 62.5 nM dBET6 (log10[M] -7.20412)): 49.08
DMSO-normalized antiproliferation, Mean ([2]; co-treatment 312.5 nM dTAGV-1 (log10[M] -6.50515) + 250 nM dBET6 (log10[M] -6.60206)): 33.26
DMSO-normalized antiproliferation, Mean ([2]; co-treatment 1250 nM dTAGV-1 (log10[M] -5.90309) + 1 nM dBET6 (log10[M] -9.0103)): 89.48
DMSO-normalized antiproliferation, Mean ([2]; co-treatment 1250 nM dTAGV-1 (log10[M] -5.90309) + 4 nM dBET6 (log10[M] -8.40824)): 74.91
DMSO-normalized antiproliferation, Mean ([2]; co-treatment 1250 nM dTAGV-1 (log10[M] -5.90309) + 15.6 nM dBET6 (log10[M] -7.80618)): 44.25
DMSO-normalized antiproliferation, Mean ([2]; co-treatment 1250 nM dTAGV-1 (log10[M] -5.90309) + 62.5 nM dBET6 (log10[M] -7.20412)): 31.06
DMSO-normalized antiproliferation, Mean ([2]; co-treatment 1250 nM dTAGV-1 (log10[M] -5.90309) + 250 nM dBET6 (log10[M] -6.60206)): 29.68
DMSO-normalized antiproliferation, Mean ([2]; co-treatment 5000 nM dTAGV-1 (log10[M] -5.30103) + 1 nM dBET6 (log10[M] -9.0103)): 80.15
DMSO-normalized antiproliferation, Mean ([2]; co-treatment 5000 nM dTAGV-1 (log10[M] -5.30103) + 4 nM dBET6 (log10[M] -8.40824)): 47.93
DMSO-normalized antiproliferation, Mean ([2]; co-treatment 5000 nM dTAGV-1 (log10[M] -5.30103) + 15.6 nM dBET6 (log10[M] -7.80618)): 27.9
DMSO-normalized antiproliferation, Mean ([2]; co-treatment 5000 nM dTAGV-1 (log10[M] -5.30103) + 62.5 nM dBET6 (log10[M] -7.20412)): 26.15
DMSO-normalized antiproliferation, Mean ([2]; co-treatment 5000 nM dTAGV-1 (log10[M] -5.30103) + 250 nM dBET6 (log10[M] -6.60206)): 25.03
DMSO-normalized antiproliferation, Mean ([2]; dTAGV-1 log10[M] -5.30103, with DMSO (no dBET6)): 106.03
DMSO-normalized antiproliferation, Mean ([2]; dTAGV-1 log10[M] -5.90309, with DMSO (no dBET6)): 111.22
DMSO-normalized antiproliferation, Mean ([2]; dTAGV-1 log10[M] -6.50515, with DMSO (no dBET6)): 108.9
DMSO-normalized antiproliferation, Mean ([2]; dTAGV-1 log10[M] -7.10721, with DMSO (no dBET6)): 118.75
DMSO-normalized antiproliferation, Mean ([2]; dTAGV-1 log10[M] -7.70927, with DMSO (no dBET6)): 96.22
